{
  "source": "ChEMBL document CHEMBL4665702",
  "about": "“Cacalol Acetate, a Sesquiterpene from Psacalium decompositum, Exerts an Anti-inflammatory Effect through LPS/NF-KB Signaling in Raw 264.7 Macrophages” (2020)",
  "key": {"Mus musculus [1]": {"test_system": "Mus musculus", "assay": "Anti-inflammatory activity in TPA-induced CD-1 mouse ear edema model assessed as ear weight at 1 mg", "type": "functional"}, "Mus musculus [2]": {"test_system": "Mus musculus", "assay": "Anti-inflammatory activity in TPA-induced CD-1 mouse ear edema model assessed as inhibition of ear edema at 1 mg relative to control", "type": "functional"}, "RAW264.7 [3]": {"test_system": "RAW264.7", "assay": "Anti-inflammatory activity in mouse RAW264.7 cells assessed as inhibition of LPS-induced IL-1beta production at 10 uM preincubated for 1 hr followed by LPS administration measured after 3 hrs by ELISA", "type": "functional, cell-based", "details": "time 4.0 hrs"}, "RAW264.7 [4]": {"test_system": "RAW264.7", "assay": "Anti-inflammatory activity in mouse RAW264.7 cells assessed as inhibition of LPS-induced IL-6 mRNA expression at 10 uM preincubated for 1 hr followed by LPS administration measured after 3 hrs by RT-PCR analysis", "type": "functional, cell-based", "details": "time 4.0 hrs"}, "[5]": {"target": "T1, Inhibitor of nuclear factor kappa-B kinase subunit beta (Mus musculus) (UniProt O88351)", "T1 sequence (whole entry)": "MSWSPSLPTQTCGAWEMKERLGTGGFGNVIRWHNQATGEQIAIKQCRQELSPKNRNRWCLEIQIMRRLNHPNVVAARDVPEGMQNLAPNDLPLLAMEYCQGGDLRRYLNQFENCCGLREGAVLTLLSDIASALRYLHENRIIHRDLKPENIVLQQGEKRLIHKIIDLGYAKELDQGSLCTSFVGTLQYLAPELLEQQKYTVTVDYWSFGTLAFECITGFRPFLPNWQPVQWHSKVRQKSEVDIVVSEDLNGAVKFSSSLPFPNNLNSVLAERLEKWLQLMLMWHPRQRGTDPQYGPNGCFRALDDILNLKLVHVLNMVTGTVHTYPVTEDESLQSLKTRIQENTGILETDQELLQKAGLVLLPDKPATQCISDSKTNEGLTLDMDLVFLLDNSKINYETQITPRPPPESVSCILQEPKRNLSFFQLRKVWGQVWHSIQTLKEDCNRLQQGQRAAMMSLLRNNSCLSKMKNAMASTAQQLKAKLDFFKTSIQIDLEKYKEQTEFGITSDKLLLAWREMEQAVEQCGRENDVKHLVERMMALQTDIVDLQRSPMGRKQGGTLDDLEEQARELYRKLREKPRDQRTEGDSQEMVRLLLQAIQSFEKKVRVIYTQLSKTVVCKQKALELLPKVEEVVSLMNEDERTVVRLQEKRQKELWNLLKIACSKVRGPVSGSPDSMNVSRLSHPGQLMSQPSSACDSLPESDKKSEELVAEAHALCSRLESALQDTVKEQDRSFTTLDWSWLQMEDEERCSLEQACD", "assay": "Inhibition of IKK-beta phosphorylation at Ser176/177 residues in LPS-induced mouse RAW 264.7 cells at 10 uM preincubated for 1 hr followed by LPS administration measured after 25 mins by Western blot analysis relative to control", "details": "RAW264.7, time 85.0 min"}, "RAW264.7 [6]": {"test_system": "RAW264.7", "assay": "Anti-inflammatory activity in mouse RAW264.7 cells assessed as inhibition of LPS-induced IL-6 production at 10 uM preincubated for 1 hr followed by LPS administration measured after 3 hrs by ELISA", "type": "functional, cell-based", "details": "time 4.0 hrs"}, "RAW264.7 [7]": {"test_system": "RAW264.7", "assay": "Anti-inflammatory activity in mouse RAW264.7 cells assessed as inhibition of LPS-induced IL-1beta mRNA expression at 10 uM preincubated for 1 hr followed by LPS administration measured after 3 hrs by RT-PCR analysis", "type": "functional, cell-based", "details": "time 4.0 hrs"}, "RAW264.7 [8]": {"test_system": "RAW264.7", "assay": "Anti-inflammatory activity in mouse RAW264.7 cells assessed as inhibition of LPS-induced TNF-alpha production at 10 uM preincubated for 1 hr followed by LPS administration measured after 3 hrs by ELISA", "type": "functional, cell-based", "details": "time 4.0 hrs"}, "RAW264.7 [9]": {"test_system": "RAW264.7", "assay": "Anti-inflammatory activity in mouse RAW264.7 cells assessed as inhibition of LPS-induced TNF-alpha mRNA expression at 10 uM preincubated for 1 hr followed by LPS administration measured after 3 hrs by RT-PCR analysis", "type": "functional, cell-based", "details": "time 4.0 hrs"}, "[10]": {"target": "Transcription factor p65 (Mus musculus) (UniProt Q04207)", "assay": "Inhibition of p65 phosphorylation at Ser536 residues in LPS-induced mouse RAW 264.7 cells at 10 uM preincubated for 1 hr followed by LPS administration measured after 25 mins by Western blot analysis relative to control", "details": "RAW264.7, dose 100.0 µM, time 85.0 min"}, "RAW264.7 [11]": {"test_system": "RAW264.7", "assay": "Anti-inflammatory activity in mouse RAW264.7 cells assessed as inhibition of LPS-induced COX2 protein level at 50 to 100 uM preincubated for 90 mins followed by LPS administration measured after 3 hrs by RT-qPCR analysis relative to control", "type": "functional", "details": "dose microM 50-100; time 270 min; 4.5 h"}, "RAW264.7 [12]": {"test_system": "RAW264.7", "assay": "Anti-inflammatory activity in mouse RAW264.7 cells assessed as inhibition of LPS-induced IL-6 production at 50 to 100 uM preincubated for 1 hr followed by LPS administration measured after 3 hrs by ELISA", "type": "functional, cell-based", "details": "dose microM 50-100, time 4.0 hrs"}, "RAW264.7 [13]": {"test_system": "RAW264.7", "assay": "Anti-inflammatory activity in mouse RAW264.7 cells assessed as inhibition of LPS-induced IL-1beta mRNA expression at 50 to 100 uM preincubated for 1 hr followed by LPS administration measured after 3 hrs by RT-PCR analysis", "type": "functional, cell-based", "details": "dose microM 50-100, time 4.0 hrs"}, "RAW264.7 [14]": {"test_system": "RAW264.7", "assay": "Anti-inflammatory activity in mouse RAW264.7 cells assessed as inhibition of LPS-induced COX2 level at 50 to 100 uM preincubated for 90 mins followed by LPS administration measured after 3 hrs by fluorimetric analysis relative to control", "type": "functional", "details": "dose microM 50-100; time 270 min; 4.5 h"}, "[15]": {"target": "Transcription factor p65 (Mus musculus) (UniProt Q04207)", "assay": "Inhibition of p65 phosphorylation at Ser536 residues in LPS-induced mouse RAW 264.7 cells at 100 uM preincubated for 1 hr followed by LPS administration measured after 25 mins by Western blot analysis relative to control", "details": "RAW264.7, time 85.0 min"}, "RAW264.7 [16]": {"test_system": "RAW264.7", "assay": "Anti-inflammatory activity in mouse RAW264.7 cells assessed as inhibition of LPS-induced TNF-alpha production at 50 to 100 uM preincubated for 1 hr followed by LPS administration measured after 3 hrs by ELISA", "type": "functional, cell-based", "details": "dose microM 50-100, time 4.0 hrs"}, "RAW264.7 [17]": {"test_system": "RAW264.7", "assay": "Anti-inflammatory activity in mouse RAW264.7 cells assessed as inhibition of LPS-induced TNF-alpha mRNA expression at 50 to 100 uM preincubated for 1 hr followed by LPS administration measured after 3 hrs by RT-PCR analysis", "type": "functional, cell-based", "details": "dose microM 50-100, time 4.0 hrs"}, "RAW264.7 [18]": {"test_system": "RAW264.7", "assay": "Inhibition of NFkappaB in mouse RAW 264.7 cells assessed as reduction in LPS-induced transcriptional activation at 50 uM preincubated for 1 hr followed by LPS administration measured after 25 mins by EMSA relative to control", "type": "cell-based", "details": "time 85.0 min"}, "RAW264.7 [19]": {"test_system": "RAW264.7", "assay": "Anti-inflammatory activity in mouse RAW264.7 cells assessed as inhibition of LPS-induced COX2 mRNA expression at 50 to 100 uM preincubated for 90 mins followed by LPS administration measured after 3 hrs by RT-qPCR analysis", "type": "functional, cell-based", "details": "dose microM 50-100, time 270.0 min"}, "RAW264.7 [20]": {"test_system": "RAW264.7", "assay": "Anti-inflammatory activity in mouse RAW264.7 cells assessed as inhibition of LPS-induced IL-1beta production at 50 to 100 uM preincubated for 1 hr followed by LPS administration measured after 3 hrs by ELISA", "type": "functional, cell-based", "details": "dose microM 50-100, time 4.0 hrs"}, "RAW264.7 [21]": {"test_system": "RAW264.7", "assay": "Anti-inflammatory activity in mouse RAW264.7 cells assessed as inhibition of LPS-induced IL-6 mRNA expression at 50 to 100 uM preincubated for 1 hr followed by LPS administration measured after 3 hrs by RT-PCR analysis", "type": "functional, cell-based", "details": "dose microM 50-100, time 4.0 hrs"}, "[22]": {"target": "T1, Inhibitor of nuclear factor kappa-B kinase subunit beta (Mus musculus)", "assay": "Inhibition of IKK-beta phosphorylation at Ser176/177 residues in LPS-induced mouse RAW 264.7 cells at 50 to 100 uM preincubated for 1 hr followed by LPS administration measured after 25 mins by Western blot analysis", "details": "RAW264.7, dose microM 50-100, time 85.0 min"}, "RAW264.7 [23]": {"test_system": "RAW264.7", "assay": "Inhibition of NFkappaB in mouse RAW 264.7 cells assessed as reduction in LPS-induced transcriptional activation at 100 uM preincubated for 1 hr followed by LPS administration measured after 25 mins by EMSA relative to control", "type": "cell-based", "details": "time 85.0 min"}},
  "note": "Active and inactive are the calls of the source. The calls are words filed in the database; no cut-off is given here.",
  "data": [
    {"smiles": "Cc1coc2c(O)c3c(c(C)c12)[C@@H](C)CCC3", "note": "[CACALOL]", "values": [
      {"measurement": "Activity", "setting": "Mus musculus [1]", "value": 8.55, "unit": "mg"},
      {"measurement": "inhibition (INH)", "setting": "Mus musculus [2]", "value": 48.5, "unit": "%"}
    ]},
    {"smiles": "CC(C)(C)c1ccc(S(=O)(=O)/C=C/C#N)cc1", "values": [
      {"measurement": "inhibition", "setting": "RAW264.7 [3]", "value": "Active"},
      {"measurement": "inhibition", "setting": "RAW264.7 [4]", "value": "Active"},
      {"measurement": "fold change (FC)", "setting": "[5]", "value": 1.5},
      {"measurement": "inhibition", "setting": "RAW264.7 [6]", "value": "Active"},
      {"measurement": "inhibition", "setting": "RAW264.7 [7]", "value": "Active"},
      {"measurement": "inhibition", "setting": "RAW264.7 [8]", "value": "Active"},
      {"measurement": "inhibition", "setting": "RAW264.7 [9]", "value": "Active"},
      {"measurement": "fold change (FC)", "setting": "[10]", "value": 0.1}
    ]},
    {"smiles": "CC(=O)Oc1c2c(c(C)c3c(C)coc13)[C@@H](C)CCC2", "values": [
      {"measurement": "fold change (FC)", "setting": "RAW264.7 [11]", "value": 2},
      {"measurement": "inhibition", "setting": "RAW264.7 [12]", "value": "Active"},
      {"measurement": "inhibition", "setting": "RAW264.7 [13]", "value": "Active"},
      {"measurement": "fold change (FC)", "setting": "RAW264.7 [14]", "value": 2.5},
      {"measurement": "fold change (FC)", "setting": "[15]", "value": 0.2},
      {"measurement": "inhibition", "setting": "RAW264.7 [16]", "value": "Active"},
      {"measurement": "Activity", "setting": "Mus musculus [1]", "value": 6.56, "unit": "mg"},
      {"measurement": "inhibition", "setting": "RAW264.7 [17]", "value": "Active"},
      {"measurement": "fold change (FC)", "setting": "RAW264.7 [18]", "value": 1.7},
      {"measurement": "inhibition", "setting": "RAW264.7 [19]", "value": "Active"},
      {"measurement": "inhibition", "setting": "RAW264.7 [20]", "value": "Active"},
      {"measurement": "inhibition", "setting": "RAW264.7 [21]", "value": "Active"},
      {"measurement": "inhibition (INH)", "setting": "Mus musculus [2]", "value": 70.3, "unit": "%"},
      {"measurement": "inhibition", "setting": "[22]", "value": "inactive"},
      {"measurement": "fold change (FC)", "setting": "RAW264.7 [23]", "value": 2.1}
    ]},
    {"smiles": "COc1ccc2c(c1)c(CC(=O)O)c(C)n2C(=O)c1ccc(Cl)cc1", "note": "[INDOMETHACIN]", "values": [
      {"measurement": "Activity", "setting": "Mus musculus [1]", "value": 4.05, "unit": "mg"},
      {"measurement": "inhibition (INH)", "setting": "Mus musculus [2]", "value": 78.6, "unit": "%"}
    ]}
  ]
}
